Measured values from patent US9254291B2, “Modulators of ATP-binding cassette transporters” (VERTEX PHARMACEUTICALS INCORPORATED, priority 2011, dated 2016).

Molecular target: T1, ΔF508-CFTR (Homo sapiens, UniProt P13569, DEL508-508)
T1 construct: expressed in transfected cells
Test: Membrane potential optical assay for ΔF508-CFTR correction properties of compounds
Format: cell-based
Conditions: ΔF508-CFTR in NIH3T3 mouse fibroblasts; test behind Table 2 not named
Text: Assays for Detecting and Measuring ΔF508-CFTR Correction Properties of Compounds
Membrane potential optical methods for assaying ΔF508-CFTR modulation properties of compounds.
The assay utilizes fluorescent voltage sensing dyes to measure changes in membrane potential using a fluorescent plate reader (e.g., FLIPR III, Molecular Devices, Inc.) as a readout for increase in functional ΔF508-CFTR in NIH 3T3 cells. The driving force for the response is the creation of a chloride ion gradient in conjunction with channel activation by a single liquid addition step after the cells have previously been treated with compounds and subsequently loaded with a voltage sensing dye.
Identification of Correction Compounds
To identify small molecules that correct the trafficking defect associated with ΔF508-CFTR; a single-addition HTS assay format was developed. […] Cells are then ready for compound exposure after adhering to the bottom of the assay plates.
The cells were incubated in serum-free medium for 16-24 hrs in tissue culture incubator at 37° C., 5% CO2, 90% humidity in the presence or absence (negative control) of test compound. […] The addition of Cl^−-free medium promoted Cl^− efflux in response to ΔF508-CFTR activation and the resulting membrane depolarization was optically monitored using voltage sensor dyes. […]

T1 sequence (P13569 with tags, fused parts or gaps DEL508-508): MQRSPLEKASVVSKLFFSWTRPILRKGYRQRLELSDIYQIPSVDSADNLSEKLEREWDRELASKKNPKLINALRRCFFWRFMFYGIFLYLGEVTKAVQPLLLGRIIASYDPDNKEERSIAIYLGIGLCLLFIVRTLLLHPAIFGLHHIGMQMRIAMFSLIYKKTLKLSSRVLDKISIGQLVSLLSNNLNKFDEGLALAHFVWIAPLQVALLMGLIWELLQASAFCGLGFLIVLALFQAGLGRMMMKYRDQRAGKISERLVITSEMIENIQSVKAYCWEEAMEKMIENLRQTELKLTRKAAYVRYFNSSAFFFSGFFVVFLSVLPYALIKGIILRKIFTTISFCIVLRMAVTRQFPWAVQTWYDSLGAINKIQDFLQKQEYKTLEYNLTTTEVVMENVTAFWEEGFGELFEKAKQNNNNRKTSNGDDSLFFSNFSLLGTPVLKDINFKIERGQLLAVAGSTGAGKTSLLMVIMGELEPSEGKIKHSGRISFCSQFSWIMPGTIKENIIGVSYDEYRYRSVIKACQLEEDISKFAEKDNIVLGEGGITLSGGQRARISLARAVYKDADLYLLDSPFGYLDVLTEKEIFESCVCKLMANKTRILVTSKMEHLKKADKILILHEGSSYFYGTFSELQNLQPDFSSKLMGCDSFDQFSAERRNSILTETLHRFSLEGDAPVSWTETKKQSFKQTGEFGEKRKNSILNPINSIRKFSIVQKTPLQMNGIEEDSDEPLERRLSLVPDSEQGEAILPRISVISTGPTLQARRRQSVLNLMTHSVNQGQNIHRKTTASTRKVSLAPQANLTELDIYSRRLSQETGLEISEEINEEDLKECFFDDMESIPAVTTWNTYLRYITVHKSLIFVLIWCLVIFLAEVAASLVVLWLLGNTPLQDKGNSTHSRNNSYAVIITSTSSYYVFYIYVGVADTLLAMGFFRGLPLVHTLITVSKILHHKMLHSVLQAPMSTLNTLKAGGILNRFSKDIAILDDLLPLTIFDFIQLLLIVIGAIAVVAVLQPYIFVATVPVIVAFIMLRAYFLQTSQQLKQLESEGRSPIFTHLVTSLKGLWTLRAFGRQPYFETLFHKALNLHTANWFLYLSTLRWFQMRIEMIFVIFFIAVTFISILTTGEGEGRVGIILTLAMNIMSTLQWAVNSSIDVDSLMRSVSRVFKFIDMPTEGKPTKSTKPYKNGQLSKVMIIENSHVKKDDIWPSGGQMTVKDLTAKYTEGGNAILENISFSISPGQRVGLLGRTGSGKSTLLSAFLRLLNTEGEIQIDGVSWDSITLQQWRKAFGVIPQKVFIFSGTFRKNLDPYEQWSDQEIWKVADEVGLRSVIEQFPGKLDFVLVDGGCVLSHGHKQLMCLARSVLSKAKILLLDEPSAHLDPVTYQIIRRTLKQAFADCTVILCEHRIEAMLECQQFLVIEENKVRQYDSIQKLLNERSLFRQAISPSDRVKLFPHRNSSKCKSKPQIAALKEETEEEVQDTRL

EC50: < 2000 nM
Compound: CC1(C)c2cc3cc(NC(=O)C4(c5ccc6c(c5)OC(F)(F)O6)CC4)c(F)cc3n2C[C@H](CO)OC1O (stereo partly drawn) [1-(2,2-difluorobenzo[d][1,3]dioxol-5-yl)-N-((4R)-8-fluoro-2-hydroxy-4-(hydroxymethyl)-1,1-dimethyl-1,2,4,5-tetrahydro-[1,4]oxazepino[4,5-a]indol-9-yl)cyclopropanecarboxamide]
